From patent publication US11866708B2, “Tailored modulation of gene regulation programs via functional enhancer RNA” (Board of Regents, The University of Texas System, priority 2019, dated 2024)

System: TNFSF10
Test: TNFSF10 and eRNA expression with TIC10 treatment
Assay type: cell-based, human
Settings: TIC10 treatment 48 hours; FIG. 6F left
Description: For the negative control experiment, 5 uM of TIC10 (SML1068, Sigma-Aldrich) was treated for 48 hrs to activate the apoptosis pathway by inducing the level of TNFSF10 expression.

For Cc1ccccc1CN1C(=O)C2=C(CCN(Cc3ccccc3)C2)N2CCN=C12 [TIC10], the TNFSF10 expression was “induced TNFSF10 expression significantly” and the “expression of the virus inducible eRNAs associated with the TNFSF10 gene” value was “did not affect expression”.
